From article PMC10033563, “Unique alcohol dehydrogenases involved in algal sugar utilization by marine bacteria” (Applied Microbiology and Biotechnology, 2023)

What was measured:
ZoADH = target: T1, ZoADH (Zobellia galactanivorans, UniProt G0L712); experiment: X-ray crystal structure; format: binding; details: co-crystallised with 20 mM NAD+, pH 7.5; Zn2+ bound
T1 construct: gene adhI; codon-optimized synthetic gene in pET28a, N-terminal Strep-tag, E. coli BL21(DE3); homotetramer; 2 Zn per monomer
T1 sequence (G0L712 entry or part of it): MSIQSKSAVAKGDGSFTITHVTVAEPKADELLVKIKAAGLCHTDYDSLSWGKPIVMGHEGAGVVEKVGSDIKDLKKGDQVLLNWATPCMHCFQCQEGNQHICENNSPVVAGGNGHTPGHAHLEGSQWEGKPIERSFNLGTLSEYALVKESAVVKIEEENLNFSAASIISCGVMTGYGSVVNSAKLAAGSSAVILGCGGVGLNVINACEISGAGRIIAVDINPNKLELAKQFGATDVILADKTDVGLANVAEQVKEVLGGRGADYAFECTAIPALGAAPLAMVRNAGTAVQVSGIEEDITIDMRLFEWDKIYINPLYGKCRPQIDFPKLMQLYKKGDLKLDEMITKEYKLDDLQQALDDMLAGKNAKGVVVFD

FoADH = target: T2, FoADH (Formosa agariphila, UniProt T2KM87); experiment: X-ray crystal structure; format: binding; details: co-crystallised with 20 mM NAD+, pH 7.5; Zn2+ bound
T2 construct: gene BN863_21030; full-length from genomic DNA in pET28a, N-terminal Strep-tag, E. coli BL21(DE3); homotetramer; 2 Zn per monomer
T2 sequence (T2KM87 1-370): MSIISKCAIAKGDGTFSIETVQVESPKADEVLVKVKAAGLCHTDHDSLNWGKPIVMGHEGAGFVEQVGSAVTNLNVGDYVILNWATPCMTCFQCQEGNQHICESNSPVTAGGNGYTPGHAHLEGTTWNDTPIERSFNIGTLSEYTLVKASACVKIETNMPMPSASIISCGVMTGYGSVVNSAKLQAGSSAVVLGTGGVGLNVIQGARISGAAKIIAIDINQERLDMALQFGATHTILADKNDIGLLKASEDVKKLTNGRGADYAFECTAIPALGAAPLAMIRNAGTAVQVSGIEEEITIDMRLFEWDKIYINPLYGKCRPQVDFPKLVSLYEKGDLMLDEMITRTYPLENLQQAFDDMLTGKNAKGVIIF

[1] = target: zinc-dependent alcohol dehydrogenase from Zobellia galactanivorans DsijT (Zobellia galactanivorans DsijT); experiment: crystal structure; enzyme (25 mg/mL) incubated with 20 mM NAD+ overnight; crystals from 0.1 M Tris-HCl pH 7.5, 0.2 M KCl, 20-22% (w/v) PEG 3350 at 22 °C; tetrameric interfaces analysed by PDBePISA; tetramer as a dimer of dimers
[2] = target: the molecule itself; experiment: as above

Molecule: NC(=O)c1ccc[n+]([C@@H]2O[C@H](COP(=O)(O)OP(=O)(O)OC[C@H]3O[C@@H](n4cnc5c(N)ncnc54)[C@H](O)[C@@H]3O)[C@@H](O)[C@H]2O)c1 [NAD^+]
- X-ray crystal structure (ZoADH): PDB codes 8H2A (FoADH-NAD) and 8H2B (ZoADH-NAD)
- X-ray crystal structure (FoADH): deposited in the Protein Data Bank under PDB codes 8H2A (FoADH-NAD)

Molecule: zinc-dependent alcohol dehydrogenase from Zobellia galactanivorans DsijT (enzyme)
- stoichiometry N [1]: 4

B1: zinc-dependent alcohol dehydrogenase from Formosa agariphila KMM 3901T (enzyme, UniProt T2KM87 1-370, looked up)
chain: T2 sequence (T2KM87 1-370)
notes: FoADH, zinc-dependent alcohol dehydrogenase of Formosa agariphila KMM 3901T (DSM-15362), amplified from genomic DNA into pET28a; the printed insert primers run from the ATG to the stop codon (TTA in the reverse primer); Crystallised with NAD+ and two zinc ions; also called FoADH; ADH; source: E. coli BL21 (DE3), purified (Strep-Tactin XT Sepharose, size exclusion chromatography)
- stoichiometry N [2]: 4
